According to US20250243160A1, “INDOLE DERIVATIVES FOR TARGETING AUTOPHAGY” (Automera PTE. LTD, priority 2024, published 2025):

Assays:
Recombinant p62 protein = Recombinant p62 protein (Homo sapiens, UniProt Q13501); assay: Surface plasmon resonance (SPR) compound binding to p62; conditions: 15° C
Experimental: Recombinant p62 protein was buffer exchanged into Biacore SPR running buffer (Cytiva 100671) using the Slide-A-Lyzer Mini Dialysis system 7K MWCO (Thermo Fisher Scientific, Cat no. 69560). The final protein concentration was determined using the Nanodrop One spectrophotometer (Thermo Fisher Scientific, cat no. ND-ONE-W), with calibration for the dialysis buffer.
The prepared protein was diluted in sodium acetate buffer (NaAc, pH 5.5, Cytiva) to concentrations ranging from approximately 0.25-40 μg/mL. Post-immobilization, the protein required approximately 16 hours of equilibration in running buffer supplemented with 1% DMSO at 15° C. to ensure adequate surface equilibration and protein reorganization.
All SPR experiments were conducted at a constant temperature of 15° C. The SPR chip surface was activated using EDC/NHS for a contact time of 6-10 min at a flow rate of 10 μL/min. This was followed by protein immobilization for 2100 seconds and ethanolamine capping for 420 seconds, both at the same flow rate. Immediately after immobilization, the NH2-REEE peptide was analyzed in Single Cycle Kinetics mode (SCK) to verify surface activity, ensuring it binds the sample with the published affinity (˜20 μM by SPR).
For general compound binding studies, experiments were performed at 15° C. using a running buffer composed of 10 mM HEPES, 150 mM NaCl, 1 mM DTT, 0.05% Tween 20, and 1% DMSO at pH 7.4. The test compound was initially prepared at a 20 mM concentration in DMSO and subsequently titrated in 2-fold dilutions. For each assay, 2 μL of the compound was mixed with 198 μL of the running buffer, and the mixture was thoroughly pipetted approximately 15 times for homogenization.
A series of blank injections (0 μM concentration) were included for double referencing, with at least 8 or 16 per plate depending on the format. Typical injection parameters were 120 seconds for association and 180 seconds for dissociation at a flow rate of […]. A four-point solvent correction was prepared with DMSO concentrations ranging from 2% to 0.5% in the buffer. Post each compound injection, the system's needles were washed with 50% DMSO.
Analysis of the SPR data was conducted using the Cytiva Evaluation software. The binding levels at the late time-point of each interaction were corrected for reference, then normalized to percentage bound values to account for variations in immobilization levels, protein molecular weight, and compound molecular weight.
Compound binding studies were carried out according to experimental procedures above and SPR % occupancy was determined and summarized in Table 7.

p62 oligomers = biological target: T1, p62 oligomers (Homo sapiens, UniProt Q13501); assay: p62 oligomerization assay by Western blot in HeLa cells; format: cell-based; conditions: 24 hours treatment, relative to vehicle control (DMSO)
T1 construct: endogenous in cells; host or cells: HeLa
Experimental: (§1) HeLa cells were seeded in 6-well plates (700,000 cells) and allowed to adhere overnight. Media was replaced one hour before administering either vehicle (DMSO) or test compounds. After 24 hours of treatment, the media was discarded, and cells were rinsed once with ice-cold 1×PBS before detached from plates with ice-cold RIPA Lysis and Extraction Buffer (Thermo Fisher Scientific) which was supplemented with protease and phosphatase inhibitors. The resulting cell suspensions were transferred to pre-chilled microcentrifuge tubes, incubated on ice for 20 min with intermittent mixing and then centrifuged at 12,000 rpm for 20 min at 4° C. The supernatants were then aspirated slowly and transferred into new tubes kept on ice. The protein concentration in the samples was determined using BCA kit (Thermo Fisher Scientific) as per manufacturer's instructions.
(§2) For the p62 oligomerization and LC3 lipidation assays, cell lysates were prepared using RIPA buffer supplemented with 2% SDS and benzonase (Sigma). The lysates were then combined with 4× Laemmli protein sample buffer (Bio-Rad), heated at 70° C. for 10 min and subjected to a brief centrifugation of 10-15 seconds.
(§3) For p62 oligomerization and LC3 lipidation assays, lysates containing 30 μg of protein and for BRD4 and FKBP12(F36V) degradation assays, lysates containing 20 μg of protein, were loaded slowly into the wells of 4-20% gradient Tris-glycine gels (Bio-Rad). The gels were run at 100V until completion and transferred onto PVDF membranes. Membranes were blocked using 5% milk in TBS-Tween (0.1%) buffer at room temperature for 1 hour. The membranes were incubated with primary antibody in 5% milk-TBST with shaking, overnight at 4° C. The primary antibodies used were: p62 (Novus Biologicals 2C11, H00008878-MO1), LC3A/B (Cell Signalling Technology D3U4C, 12741S), FKBP12 (Abcam ab24373), BRD4 (Cell Signalling Technology E2A7X, 13440S), GAPDH (Cell Signalling Technology D4C6R, 97166S), and β-Actin (Proteintech 66009-1-Ig). Following primary antibody incubation, membranes were washed thrice with TBST 10 min before and after incubation with secondary-HRP conjugated antibody in 5% milk-TBST for 1 hour at room temperature. The secondary antibodies used were: Anti-Mouse IgG HRP Conjugate (Promega W4021B) and Anti-Rabbit IgG HRP Conjugate (Promega W4011). For the p62 oligomerization assay, the total protein levels were assessed using Ponceau staining (Thermo Fisher Scientific) of PVDF membrane as per recommendation by manufacturer's guidelines.
(§4) Imaging was acquired using SuperSignal™ West Pico PLUS Chemiluminescent Substrate (Thermo Fisher Scientific) with iBright Invitrogen FL100 imaging system. Band signal intensity, reflective of protein concentrations, were quantified using Invitrogen™ iBright™ Analysis and Image J software.
HeLa cells were treated with compounds for 24 hours to evaluate the effect of these compounds on p62 oligomerisation activity. The resulting changes in levels of p62 oligomers were assessed by Western blotting, as described in experimental procedures. The fold change of p62 oligomer levels induced by compound treatment relative to vehicle control (DMSO) was determined and summarized in Table 8. Specifically, FIGS. 2A-C show Western blot images and their corresponding quantification showing the levels of high molecular weight (100-200 kDa) p62 oligomers by 24 hours compound treatments at listed concentrations, relative to vehicle control (DMSO) in HeLa cells. Protein loading consistencies was assessed by Ponceau staining (not shown).

LC3 protein = assay: LC3 lipidation (LC3-II/LC3-I) assay by Western blot in HeLa cells; format: cell-based; conditions: 24 hours treatment, relative to vehicle control (DMSO)
Experimental: as §1, §2, §3, §4
HeLa cells were treated with compounds for 24 hours to evaluate the effect of these compounds on LC3-II/LC3-I levels, a measure of autophagy activation. The changes in levels of LC3-I, LC3-II and […] (loading control) were assessed by Western blotting, as described in experimental procedures. The fold increase of LC3-II/LC3-I levels induced by compound treatment relative to vehicle control (DMSO) was determined and summarized in Table 9. Specifically, FIGS. 3A-C show Western blot images and their corresponding quantification showing the lipidation levels of LC3 protein (LC3-II/LC3-I) by 24 hours compound treatments at listed concentrations, relative to vehicle control (DMSO) in HeLa cells.

p62 puncta = p62 puncta immunocytochemistry imaging in HeLa cells; format: cell-based; conditions: 24 hours treatment, relative to vehicle control (DMSO)
How it was run: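 Following 24 h compound or DMSO treatment, HeLa cells were fixed and immunostained for p62 with DAPI counterstain. Puncta counted by imaging on EVOS M7000 (20× objective) or Operetta CLS (63× water objective); reported as fold change versus DMSO.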

T1 sequence (Q13501 whole entry): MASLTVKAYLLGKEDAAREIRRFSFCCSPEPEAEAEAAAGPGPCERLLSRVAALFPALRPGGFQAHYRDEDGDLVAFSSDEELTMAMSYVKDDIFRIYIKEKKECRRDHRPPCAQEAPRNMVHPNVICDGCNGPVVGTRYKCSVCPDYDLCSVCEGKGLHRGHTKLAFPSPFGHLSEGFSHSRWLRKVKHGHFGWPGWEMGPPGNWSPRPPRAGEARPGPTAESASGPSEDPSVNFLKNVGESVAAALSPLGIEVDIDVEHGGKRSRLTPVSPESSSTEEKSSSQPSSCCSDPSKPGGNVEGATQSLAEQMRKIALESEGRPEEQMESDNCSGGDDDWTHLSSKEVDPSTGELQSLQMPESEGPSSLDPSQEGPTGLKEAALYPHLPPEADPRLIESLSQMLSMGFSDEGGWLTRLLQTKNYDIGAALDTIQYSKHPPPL
Sequence of Recombinant p62 protein (Q13501 whole entry, species assumed): as the sequence (Q13501 whole entry) above

Row | Compound | receptor occupancy at 100 µM (Recombinant p62 protein) | other results
1 | O=C(c1ccccc1)n1ccc2c(CNCCO)cccc21 [Compound 16, (4-(((2-hydroxyethyl)amino)methyl)-1H-indol-1-yl)(phenyl)methanone] | > 70% | –
2 | O=C(CO)NCc1cccc2c1ccn2Cc1ccc(F)cc1 [Compound 46] | 30 to 70% | –
3 | OCCNCc1c(Cl)ccc2c1ccn2Cc1ccccc1 [Compound 36] | 30 to 70% | –
4 | OCCNCc1cccc2c1CN(Cc1ccccc1)C2 [Compound 42, 2-(((2-benzylisoindolin-4-yl)methyl)amino)ethan-1-ol] | < 30% | –
5 | OCCNCc1cccc2c1ccn2CCc1cccnc1 [Compound 29] | < 30% | –
6 | Cc1cn(Cc2ccccc2)c2cccc(CNCCO)c12 [Compound 37, 2-(((1-benzyl-3-methyl-1H-indol-4-yl)methyl)amino)ethan-1-ol] | 30 to 70% | p62 oligomerization (fold change of p62 oligomer levels) (p62 oligomers): ++ (>2-fold change relative to DMSO control); LC3 lipidation (fold increase of LC3-II/LC3-I levels) (LC3 protein): + (<2-fold change in LC3-II/LC3-I relative to DMSO control)
7 | OCCNCc1cccc2c1ccn2Cc1cccc(Cl)c1 [Compound 13] | 30 to 70% | p62 oligomerization (fold change of p62 oligomer levels) (p62 oligomers): ++ (>2-fold change relative to DMSO control); LC3 lipidation (fold increase of LC3-II/LC3-I levels) (LC3 protein): + (<2-fold change in LC3-II/LC3-I relative to DMSO control)
8 | O=C(NCCO)c1cccc2c1ccn2Cc1ccccc1 [Compound 4, 1-benzyl-N-(2-hydroxyethyl)-1H-indole-4-carboxamide] | < 30% | –
9 | OCCNCc1ccc(Cl)c2c1ccn2Cc1ccccc1 [Compound 35] | > 70% | p62 oligomerization (fold change of p62 oligomer levels) (p62 oligomers): ++ (>2-fold change relative to DMSO control); LC3 lipidation (fold increase of LC3-II/LC3-I levels) (LC3 protein): ++ (>2-fold change in LC3-II/LC3-I relative to DMSO control)
10 | OC1CC(NCc2cccc3c2ccn3Cc2ccccc2)C1 (stereo not drawn) [Compound 7] | < 30% | p62 puncta (fold change of p62 puncta levels) (p62 puncta): + (<2-fold change in p62 puncta levels relative to DMSO control)
11 | OCCNCc1ccc2c(ccn2Cc2ccccc2)c1 [Compound 38] | 30 to 70% | –
12 | OCCNCc1cccc2c1ccn2Cc1ncc[nH]1 [Compound 22] | < 30% | –
13 | O=C(CCO)NCc1cccc2c1ccn2Cc1ccccc1 [Compound 52] | < 30% | –
14 | OCCNCc1cncc2c1ccn2Cc1ccccc1 [Compound 51] | < 30% | –
15 | O=C(NCCO)NCc1cccc2c1ccn2Cc1ccccc1 [Compound 53, 1-((1-benzyl-1H-indol-4-yl)methyl)-3-(2-hydroxyethyl)urea] | < 30% | –
16 | CC(C)NCCN1Cc2cccc(CNCCO)c2C1 [Compound 43] | < 30% | –

Row | Compound | receptor occupancy at 100 µM (Recombinant p62 protein) | other results
17 | OCCNCc1cccc2c1ccn2CC1CCCCN1 (stereo not drawn) [Compound 54] | < 30% | p62 puncta (fold change of p62 puncta levels) (p62 puncta): ++ (>2-fold change in p62 puncta levels relative to DMSO control)
18 | OCCNCc1ccnc2c1ccn2Cc1ccccc1 [Compound 50] | < 30% | –
19 | OCCNCc1ccc2ccn(Cc3ccccc3)c2c1 [Compound 2] | < 30% | –
20 | CC(=O)N1CCC(COCCNCc2cccc3c2ccn3Cc2ccccc2)CC1 [Compound 85, 1-(4-((2-(((1-benzyl-1H-indol-4-yl)methyl)amino)ethoxy)methyl)piperidin-1-yl)ethan-1-one] | < 30% | –
21 | OCCNCc1cccc2c1ccn2Cc1ccccc1Cl [Compound 12] | 30 to 70% | –
22 | O=S(=O)(c1ccccc1)n1ccc2c(CNCCO)cccc21 [Compound 17, 2-(((1-(phenylsulfonyl)-1H-indol-4-yl)methyl)amino)ethan-1-ol] | 30 to 70% | –
23 | CC(C)(C)OC(=O)NCCOCCOCCOCCNCc1cccc2c1ccn2Cc1ccc(F)cc1 [Compound 84, tert-butyl (1-(1-(4-fluorobenzyl)-1H-indol-4-yl)-5,8,11-trioxa-2-azatridecan-13-yl)carbamate] | < 30% | –
24 | CC(O)CNCc1cccc2c1ccn2Cc1ccccc1 (stereo not drawn) [Compound 3] | 30 to 70% | p62 puncta (fold change of p62 puncta levels) (p62 puncta): + (<2-fold change in p62 puncta levels relative to DMSO control)
25 | CNCCOCc1cccc2c1ccn2Cc1ccccc1 [Compound 5, 2-((1-benzyl-1H-indol-4-yl)methoxy)-N-methylethan-1-amine] | 30 to 70% | p62 puncta (fold change of p62 puncta levels) (p62 puncta): + (<2-fold change in p62 puncta levels relative to DMSO control)
26 | O=C(CCO)Nc1cccc2c1ccn2Cc1ccccc1 [Compound 8] | < 30% | –
27 | OCCNCc1cccc2c1CCN2Cc1ccccc1 [Compound 40, 2-(((1-benzylindolin-4-yl)methyl)amino)ethan-1-ol] | < 30% | –
28 | OCCNCc1cccc2c1ccn2CC1CCNCC1 [Compound 25, 2-(((1-(piperidin-4-ylmethyl)-1H-indol-4-yl)methyl)amino)ethan-1-ol] | < 30% | –
29 | CC(C)OCCNCc1cccc2c1ccn2Cc1ccccc1 [Compound 47] | < 30% | –
30 | OCCNCc1cccc2c1ccn2CC1CCOCC1 [Compound 24] | 30 to 70% | –
31 | COc1ccc(Cn2ccc3c(CNCCO)cccc32)cc1 [Compound 15] | 30 to 70% | –
32 | OCCNCc1cccc2c1ccn2Cc1ccncc1 [Compound 14] | < 30% | –
